Experimental data from patent US20240182445A1 (ONO PHARMACEUTICAL CO., LTD., priority 2019, published 2024).

Biological target: T1, human TREK-1 (Homo sapiens, UniProt O95069)
T1 construct: expressed in transfected cells
T1 sequence (O95069 1-426): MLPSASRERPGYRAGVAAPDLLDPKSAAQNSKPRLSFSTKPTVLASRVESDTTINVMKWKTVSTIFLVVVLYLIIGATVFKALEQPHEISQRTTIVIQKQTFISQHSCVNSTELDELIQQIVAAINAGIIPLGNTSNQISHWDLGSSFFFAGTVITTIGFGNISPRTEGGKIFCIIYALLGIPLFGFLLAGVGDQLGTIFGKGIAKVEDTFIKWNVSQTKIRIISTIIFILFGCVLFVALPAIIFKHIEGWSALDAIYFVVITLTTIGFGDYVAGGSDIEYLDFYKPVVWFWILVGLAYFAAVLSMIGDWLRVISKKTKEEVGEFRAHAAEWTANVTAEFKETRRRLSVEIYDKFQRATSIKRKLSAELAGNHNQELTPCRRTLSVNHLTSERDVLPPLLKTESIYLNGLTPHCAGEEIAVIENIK
Test: TREK-1 Thallium (Tl+) flux assay, Method 1
Format: cell-based
Conditions: TREK-1 Thallium (Tl+) flux assay, Method 1
Method in brief: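 CHO-K1 cells stably expressing human TREK-1, loaded with Thallos dye, received compound or 0.3% DMSO vehicle for 10 min before thallium stimulus buffer. ΔRatio is fluorescence at 25 s after thallium addition over mean pre-addition fluorescence; % inhibition calculated from it.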

Compound | IC50 [µM]
Cc1cc(OCc2ccccc2)ccc1NC(=O)c1c(Cl)cnn1C1CCN(C(=O)C2CCC2)CC1 [Compound 402, N-(4-(benzyloxy)-2-methylphenyl)-4-chloro-1-(1-(cyclobutanecarbonyl)piperidin-4-yl)-1H-pyrazole-5-carboxamide] | 2.16
COc1ccc(-c2cnc(NC(=O)c3c(Cl)cnn3C3CCN(C(=O)OC(C)(C)C)CC3)c(C)c2)c(C)c1 [Compound 403, tert-butyl 4-(4-chloro-5-((5-(4-methoxy-2-methylphenyl)-3-methylpyridin-2-yl)carbamoyl)-1H-pyrazol-1-yl)piperidine-1-carboxylate] | 2.29
Cc1cc(OCc2ccccc2)ccc1NC(=O)c1c(Cl)cnn1[C@H]1CC[C@@H](NC(=O)OC(C)(C)C)CC1 [Compound 404, tert-butyl (cis-4-(5-((4-(benzyloxy)-2-methylphenyl)carbamoyl)-4-chloro-1H-pyrazol-1-yl)cyclohexyl)carbamate] | 2.3
Cc1cc(OCc2ccccc2)ccc1NC(=O)c1c(Cl)cnn1C1CCN(C(=O)C(C)(C)C)CC1 [Compound 405, N-(4-(benzyloxy)-2-methylphenyl)-4-chloro-1-(1-pivaloylpiperidin-4-yl)-1H-pyrazole-5-carboxamide] | 2.31
Cc1cc(OCc2ccccc2)ccc1NC(=O)c1c(Cl)cnn1C1CC2(C1)CN(C(=O)C1CC1)C2 [Compound 406, N-(4-(benzyloxy)-2-methylphenyl)-4-chloro-1-(2-(cyclopropanecarbonyl)-2-azaspiro[3.3]heptan-6-yl)-1H-pyrazole-5-carboxamide] | 2.54
COc1ccc(-c2cnc(NC(=O)c3c(Cl)cnn3C3CCN(C(=O)OC(C)(C)C)CC3)c(C)c2)cn1 [Compound 407, tert-butyl 4-(4-chloro-5-((6′-methoxy-5-methyl-[3,3′-bipyridin]-6-yl)carbamoyl)-1H-pyrazol-1-yl)piperidine-1-carboxylate] | 2.57
CCc1cc(-c2cnc(NC(=O)c3c(Cl)cnn3C3CCN(C(=O)OC(C)(C)C)CC3)c(C)c2)ccc1OC [Compound 408, tert-butyl 4-(4-chloro-5-((5-(3-ethyl-4-methoxyphenyl)-3-methylpyridin-2-yl)carbamoyl)-1H-pyrazol-1-yl)piperidine-1-carboxylate] | 2.67
Cc1ccc(-n2cc(-c3cnc(NC(=O)c4c(Cl)cnn4C4CCN(C(=O)OC(C)(C)C)CC4)c(C)c3)cn2)cc1 [Compound 409, tert-butyl 4-(4-chloro-5-((3-methyl-5-(1-(p-tolyl)-1H-pyrazol-4-yl)pyridin-2-yl)carbamoyl)-1H-pyrazol-1-yl)piperidine-1-carboxylate] | 2.77
Cc1cc(-c2ccc(-c3cccs3)cc2)cnc1NC(=O)c1c(Cl)cnn1C1CCN(C(=O)OC(C)(C)C)CC1 [Compound 410, tert-butyl 4-(4-chloro-5-((3-methyl-5-(4-(thiophen-2-yl)phenyl)pyridin-2-yl)carbamoyl)-1H-pyrazol-1-yl)piperidine-1-carboxylate] | 2.78
Cc1cc(OCc2ccccc2)ccc1NC(=O)c1c(Cl)cnn1C1CCN(C(=O)C(C)C)CC1 [Compound 411, N-(4-(benzyloxy)-2-methylphenyl)-4-chloro-1-(1-isobutyrylpiperidin-4-yl)-1H-pyrazole-5-carboxamide] | 2.84
Cc1cc(OCc2ccccc2)ccc1NC(=O)c1c(Cl)cnn1CC1CN(C(=O)C2COCCO2)CCO1 (centres unmarked) [Compound 412, 1-((4-(1,4-dioxane-2-carbonyl)morpholin-2-yl)methyl)-N-(4-(benzyloxy)-2-methylphenyl)-4-chloro-1H-pyrazole-5-carboxamide] | 3
Cc1cc(-c2cnn(-c3ccccc3)c2)cnc1NC(=O)c1c(Cl)cnn1C1CCN(C(=O)OC(C)(C)C)CC1 [Compound 413, tert-butyl 4-(4-chloro-5-((3-methyl-5-(1-phenyl-1H-pyrazol-4-yl)pyridin-2-yl)carbamoyl)-1H-pyrazol-1-yl)piperidine-1-carboxylate] | 3.53
CC(=O)N1CCC(n2ncc(Cl)c2C(=O)Nc2ncc(-c3ccc(OC(F)(F)F)cc3)cc2C)CC1 [Compound 414, 1-(1-acetylpiperidin-4-yl)-4-chloro-N-(3-methyl-5-(4-(trifluoromethoxy)phenyl)pyridin-2-yl)-1H-pyrazole-5-carboxamide] | 3.62
CCCCOc1ccc(-c2cnc(NC(=O)c3c(Cl)cnn3C3CCN(C(C)=O)CC3)c(C)c2)cc1 [Compound 416, 1-(1-acetylpiperidin-4-yl)-N-(5-(4-butoxyphenyl)-3-methylpyridin-2-yl)-4-chloro-1H-pyrazole-5-carboxamide] | 4.07
Cc1cc(OCc2ccccc2)ccc1NC(=O)c1c(Cl)cnn1CC1CN(C(=O)C2CC2C)CCO1 (centres unmarked) [Compound 417, N-(4-(benzyloxy)-2-methylphenyl)-4-chloro-1-((4-(2-methylcyclopropane-1-carbonyl)morpholin-2-yl)methyl)-1H-pyrazole-5-carboxamide] | 4.16
CC(=O)N1CCC(n2ncc(Cl)c2C(=O)Nc2ncc(-c3ccc(CC(C)C)cc3)cc2C)CC1 [Compound 418, 1-(1-acetylpiperidin-4-yl)-4-chloro-N-(5-(4-isobutylphenyl)-3-methylpyridin-2-yl)-1H-pyrazole-5-carboxamide] | 4.17
COc1ncc(-c2cnc(NC(=O)c3c(Cl)cnn3C3CCN(C(=O)OC(C)(C)C)CC3)c(C)c2)cn1 [Compound 419, tert-butyl 4-(4-chloro-5-((5-(2-methoxypyrimidin-5-yl)-3-methylpyridin-2-yl)carbamoyl)-1H-pyrazol-1-yl)piperidine-1-carboxylate] | 4.19
Cc1cc(OCc2ccccc2)ccc1NC(=O)c1c(Cl)cnn1CC1CN(C(=O)C(C)C)CCO1 (centres unmarked) [Compound 420, N-(4-(benzyloxy)-2-methylphenyl)-4-chloro-1-((4-isobutyrylmorpholin-2-yl)methyl)-1H-pyrazole-5-carboxamide] | 4.38
CC(=O)N1CCC(n2ncc(Cl)c2C(=O)Nc2ncc(-c3ccc(OC(F)F)cc3)cc2C)CC1 [Compound 421, 1-(1-acetylpiperidin-4-yl)-4-chloro-N-(5-(4-(difluoromethoxy)phenyl)-3-methylpyridin-2-yl)-1H-pyrazole-5-carboxamide] | 4.4
CC(=O)N1CCC(n2ncc(Cl)c2C(=O)Nc2ncc(-c3cnc4ccccc4c3)cc2C)CC1 [Compound 422, 1-(1-acetylpiperidin-4-yl)-4-chloro-N-(3-methyl-5-(quinolin-3-yl)pyridin-2-yl)-1H-pyrazole-5-carboxamide] | 4.46
CC(=O)N1CCOC(Cn2ncc(Cl)c2C(=O)Nc2ccc(OCc3ccccc3)cc2C)C1 (centres unmarked) [Compound 423, 1-((4-acetylmorpholin-2-yl)methyl)-N-(4-(benzyloxy)-2-methylphenyl)-4-chloro-1H-pyrazole-5-carboxamide] | 4.82
Cc1cc(OCc2ccccc2)ccc1NC(=O)c1c(Cl)cnn1CC1CN(C(=O)C2CCC2)CCO1 (centres unmarked) [Compound 424, N-(4-(benzyloxy)-2-methylphenyl)-4-chloro-1-((4-(cyclobutanecarbonyl)morpholin-2-yl)methyl)-1H-pyrazole-5-carboxamide] | 4.85
COc1ncc(-c2cnc(NC(=O)c3c(Cl)cnn3C3CCN(C(C)=O)CC3)c(C)c2)cc1Cl [Compound 425, 1-(1-acetylpiperidin-4-yl)-4-chloro-N-(5′-chloro-6′-methoxy-5-methyl-[3,3′-bipyridin]-6-yl)-1H-pyrazole-5-carboxamide] | 5.05
CC(=O)N1CCC(n2ncc(Cl)c2C(=O)Nc2ncc(-c3cc(F)c(Cl)c(F)c3)cc2C)CC1 [Compound 426, 1-(1-acetylpiperidin-4-yl)-4-chloro-N-(5-(4-chloro-3,5-difluorophenyl)-3-methylpyridin-2-yl)-1H-pyrazole-5-carboxamide] | 5.12
CC(=O)N1CCC(n2ncc(Cl)c2C(=O)Nc2ncc(-c3ccc(C(F)(F)F)cc3)cc2C)CC1 [Compound 427, 1-(1-acetylpiperidin-4-yl)-4-chloro-N-(3-methyl-5-(4-(trifluoromethyl)phenyl)pyridin-2-yl)-1H-pyrazole-5-carboxamide] | 5.21
COc1c(F)cc(-c2cnc(NC(=O)c3c(Cl)cnn3C3CCN(C(C)=O)CC3)c(C)c2)cc1F [Compound 428, 1-(1-acetylpiperidin-4-yl)-4-chloro-N-(5-(3,5-difluoro-4-methoxyphenyl)-3-methylpyridin-2-yl)-1H-pyrazole-5-carboxamide] | 5.31
Cc1cc(OCc2ccccc2)ccc1NC(=O)c1c(Cl)cnn1CC1CN(C(=O)CC(C)C)CCO1 (centres unmarked) [Compound 429, N-(4-(benzyloxy)-2-methylphenyl)-4-chloro-1-((4-(3-methylbutanoyl)morpholin-2-yl)methyl)-1H-pyrazole-5-carboxamide] | 5.52
Cc1cc(OCc2ccccc2)ccc1NC(=O)c1c(Cl)cnn1C1CCN(C(=O)OC(C)(C)C)CC1 [Compound 430, tert-butyl 4-(5-((4-(benzyloxy)-2-methylphenyl)carbamoyl)-4-chloro-1H-pyrazol-1-yl)piperidine-1-carboxylate] | 6.35
CCOc1ccc(-c2cnc(NC(=O)c3c(Cl)cnn3C3CCN(C(=O)OC(C)(C)C)CC3)c(C)c2)cc1 [Compound 431, tert-butyl 4-(4-chloro-5-((5-(4-ethoxyphenyl)-3-methylpyridin-2-yl)carbamoyl)-1H-pyrazol-1-yl)piperidine-1-carboxylate] | 6.4
